{"source": "paper PMC7176540", "about": "(Chembiochem : a European journal of chemical biology, 2019)", "target": "AlaI (Streptomyces alanosinicus, UniProt A0A6H1Z626)", "assay": "co-purification with the enzyme", "assay_type": "binding", "conditions": "10 uM FAD also added in assay; pH 8.0", "data": [{"smiles": "Cc1cc2nc3c(=O)[nH]c(=O)nc-3n(C[C@H](O)[C@H](O)[C@H](O)COP(=O)(O)OP(=O)(O)OC[C@H]3O[C@@H](n4cnc5c(N)ncnc54)[C@H](O)[C@@H]3O)c2cc1C", "note": "[FAD]", "values": [{"measurement": "co-purification with the enzyme", "value": "AlaI purified with FAD, hence we still observed activity without exogenous FAD added"}]}]}
